Experimental data: PMC3747428, “Asymmetry of the Active Site Loop Conformation between Subunits of Glutamate-1-semialdehyde Aminomutase in Solution” (BioMed Research International, 2013)

Columns and labels:
[1] = target: T1, Glutamate-1-semialdehyde aminomutase (GSAM) from Synechococcus (Synechococcus elongatus, UniProt P24630); experiment: half-transamination converting native enzyme into PMP form, followed by gel filtration and absorbance; format: biochemical; details: reaction intermediate, racemic, 5 mM; 100 mM Na-Tricine pH 7.9
T1 construct: gene hemL; homodimer; mobile loop residues 153-181; Trp53 and Trp67

[2] = target: T1, Glutamate-1-semialdehyde aminomutase (GSAM) from Synechococcus; experiment: half-transamination converting native enzyme into PLP form, followed by gel filtration and absorbance; format: biochemical; details: substrate analogue, 20 mM; 100 mM Na-Tricine pH 7.9

T1 sequence (P24630 2-433): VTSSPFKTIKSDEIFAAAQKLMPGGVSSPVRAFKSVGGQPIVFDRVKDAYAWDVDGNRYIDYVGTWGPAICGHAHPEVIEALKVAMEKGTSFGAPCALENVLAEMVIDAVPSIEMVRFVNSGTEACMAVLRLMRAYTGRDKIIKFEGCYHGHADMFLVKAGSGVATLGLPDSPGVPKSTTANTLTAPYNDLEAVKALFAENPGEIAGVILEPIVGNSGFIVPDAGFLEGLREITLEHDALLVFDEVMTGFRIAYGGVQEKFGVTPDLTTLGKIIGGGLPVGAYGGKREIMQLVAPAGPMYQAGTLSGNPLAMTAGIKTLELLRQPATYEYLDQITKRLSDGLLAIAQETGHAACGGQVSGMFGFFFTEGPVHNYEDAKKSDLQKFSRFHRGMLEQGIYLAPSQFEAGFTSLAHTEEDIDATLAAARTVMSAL

NCC(N)CCC(=O)O (racemic) [DAVA, 4,5-diaminovalerate]
half-transamination converting native enzyme into PMP form, followed by gel filt [1]: the PMP form (PMP-GSAM), obtained by the addition of DAVA

O=CCCC(=O)O [succinic semialdehyde]
half-transamination converting native enzyme into PLP form, followed by gel filt [2]: PLP-GSAM), obtained by treating the native enzyme with succinic-1-semialdehyde
